Assay results from patent publication US20240270715A1, “INHIBITORS OF TRANSGLUTAMINASES” (ZEDIRA GMBH, priority 2021, published 2024).
Where two headings read alike, the source gives them in different places.

Legend:
[1] = Caco-2 permeability assay (CacoReady kit); assay type: in vitro ADME; conditions: human
Procedure, shortened: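 Caco-2 monolayer barrier, commercial ready-to-use kit, manufacturer protocol. Read-out: Papp.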

[2] = Log D by shake flask method (octanol / PBS pH 7.4, HPLC); assay type: physicochemical; conditions: octanol / PBS pH 7.4, shake flask; read-out: logD
Procedure, shortened: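 Log D is derived by HPLC measurement of how the compound distributes between octanol and pH 7.4 phosphate-buffered saline in a shake flask.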

[3] = biological target: T1, recombinant human transglutaminase 2 (Homo sapiens, UniProt P21980); assay: Transglutaminase assay: incorporation of dansylcadaverine into dimethylcasein (DCC-assay); assay type: biochemical
T1 sequence (P21980 1-687): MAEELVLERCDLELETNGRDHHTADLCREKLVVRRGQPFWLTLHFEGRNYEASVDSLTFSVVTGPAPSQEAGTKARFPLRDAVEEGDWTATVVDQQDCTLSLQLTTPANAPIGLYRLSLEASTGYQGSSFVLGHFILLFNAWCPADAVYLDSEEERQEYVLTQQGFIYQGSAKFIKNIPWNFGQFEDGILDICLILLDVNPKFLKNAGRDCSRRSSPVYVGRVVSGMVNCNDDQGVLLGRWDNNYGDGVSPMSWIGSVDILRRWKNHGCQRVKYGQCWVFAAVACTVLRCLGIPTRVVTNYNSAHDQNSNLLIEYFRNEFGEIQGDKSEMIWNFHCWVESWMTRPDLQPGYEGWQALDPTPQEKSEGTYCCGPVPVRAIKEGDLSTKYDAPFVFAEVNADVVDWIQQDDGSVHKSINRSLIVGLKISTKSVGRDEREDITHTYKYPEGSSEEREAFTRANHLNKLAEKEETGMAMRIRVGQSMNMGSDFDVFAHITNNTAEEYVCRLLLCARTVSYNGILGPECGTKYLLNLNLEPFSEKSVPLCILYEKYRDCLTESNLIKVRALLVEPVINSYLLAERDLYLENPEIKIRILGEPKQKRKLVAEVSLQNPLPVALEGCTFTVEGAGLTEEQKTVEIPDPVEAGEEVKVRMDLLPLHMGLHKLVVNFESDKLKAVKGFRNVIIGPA
Procedure, shortened: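 Recombinant human TG2 (10 nM final) incorporates dansylcadaverine (16.7 μM) into N,N-dimethylcasein (4 μM) in Tris-HCl buffer, pH 8.0, with 10 mM CaCl2 and 10 mM glutathione. Fluorescence (λex 330, λem 500 nm) followed 30 min. The slope between 20–30 min gives activity versus DMSO control, and IC50 comes from the concentration–activity plot.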

[4] = recombinant human TG2 10 nM, dansylcadaverine/dimethylcasein, read-out: IC50 TG2
[5] = DCC-assay, values in text, read-out: IC50

| Papp [1] [×10⁻⁶ cm/s] | logD [2] | IC50 [3, 4] [nM] | IC50 [3, 5] [nM] | fold more potent compared to Ref. 3 ([3]; DCC-assay, ratio of IC50) [fold] | Structure (SMILES) |
| --- | --- | --- | --- | --- | --- |
| 1 to 10 | 1 to 3 | < 150 | – | – | CCNC(=O)C(=O)CC[C@H](NC(=O)c1oc2ccccc2c1C)C(=O)Nc1cccn(CC(=O)N[C@@H]2C[C@@H]3CC[C@H]2C3)c1=O [Compound I-68, (S)-N1-(1-(2-((1S,2R,4R)-bicyclo[2.2.1]heptan-2-ylamino)-2-oxoethyl)-2-oxo-1,2-dihydropyridin-3-yl)-N6-ethyl-2-(3-methylbenzofuran-2-carboxamido)-5-oxohexanediamide] |
| < 1 | 1 to 3 | 3500 to 10000 | 4270 | – | CCOC(=O)/C=C/CC[C@H](NC(=O)c1cccnc1)C(=O)Nc1ccc(C)n(CC(=O)NCCc2ccccc2)c1=O [Ref. 3, reference compound] |
| < 1 | < 1 | 600 to 3500 | – | – | CCNC(=O)C(=O)CC[C@H](NC(=O)c1c[nH]c(C(N)=O)c1)C(=O)Nc1cccn(CC(=O)NC23CC(C2)C3)c1=O [Compound I-111, (S)-N4-(1-(1-(2-(bicyclo[1.1.1]pentan-1-ylamino)-2-oxoethyl)-2-oxo-1,2-dihydropyridin-3-ylamino)-6-(ethylamino)-1,5,6-trioxohexan-2-yl)-1H-pyrrole-2,4-dicarboxamide] |
| < 1 | < 1 | 150 to 600 | – | – | CCNC(=O)C(=O)CC[C@H](NC(=O)c1cncn1C)C(=O)Nc1cccn(CC(=O)NC23CC4CC(CC(Cl)(C4)C2)C3)c1=O [Compound I-9, (S)-N1-ethyl-N6-(1-(2-(3-chloroadamantane-1-amino)-2-oxoethyl)-2-oxo-1,2-dihydropyridin-3-yl)-5-(1-methyl-1H-imidazole-5-carboxamido)-2-oxohexanediamide] |
| 1 to 10 | 3 to 5 | 600 to 3500 | – | – | CCNC(=O)C(=O)CC[C@H](NC(=O)c1c[nH]cc1C(C)(C)C)C(=O)Nc1cccn(CCC23CC4CC(CC(C4)C2)C3)c1=O [Compound I-85] |
| < 1 | 1 to 3 | < 150 | 53 | 80 | CCC(CC)CNC(=O)Cn1cccc(NC(=O)[C@H](CC/C=C/C(=O)OC)NC(=O)c2cncn2C)c1=O [Ref. 2, reference compound] |
| 1 to 10 | 3 to 5 | < 150 | – | – | CCNC(=O)C(=O)CC[C@H](NC(=O)c1cc2ccccc2o1)C(=O)Nc1cccn(CC(=O)NC2C3CC4CC(C3)CC2C4)c1=O (stereo partly drawn) [Compound I-30, (S)-2-(benzofuran-2-carboxamido)-N6-ethyl-N1-(1-(2-(2-adamantylamino)-2-oxoethyl)-2-oxo-1,2-dihydropyridin-3-yl)-5-oxohexanediamide] |
| < 1 | 3 to 5 | 150 to 600 | – | – | CCNC(=O)C(=O)CC[C@H](NC(=O)c1cnsn1)C(=O)Nc1cccn(CC23CC4CC(CC(Br)(C4)C2)C3)c1=O [Compound I-83, (S)-N1-(1-((3-bromo-1-adamantyl)methyl)-2-oxo-1,2-dihydropyridin-3-yl)-N6-ethyl-5-oxo-2-(1,2,5-thiadiazole-3-carboxamido)hexanediamide] |
| < 1 | < 1 | 150 to 600 | – | – | CCNC(=O)C(=O)CC[C@H](NC(=O)c1ccnnc1)C(=O)Nc1cccn(CC(=O)NC2C3CCC2CC3)c1=O (stereo partly drawn) [Compound I-72, (S)-N1-(1-(2-(bicyclo[2.2.1]heptan-7-ylamino)-2-oxoethyl)-2-oxo-1,2-dihydropyridin-3-yl)-N6-ethyl-5-oxo-2-(pyridazine-4-carboxamido)hexanediamide] |
| 1 to 10 | 1 to 3 | 150 to 600 | – | – | CCNC(=O)C(=O)CC[C@H](NC(=O)c1nc2ccccc2s1)C(=O)Nc1cccn(CC(=O)N[C@@H]2C[C@@H]3CC[C@H]2C3)c1=O [Compound I-97, (S)-2-(benzo[d]thiazole-2-carboxamido)-N1-(1-(2-((1S,2R,4R)-bicyclo[2.2.1]heptan-2-ylamino)-2-oxoethyl)-2-oxo-1,2-dihydropyridin-3-yl)-N6-ethyl-5-oxohexanediamide] |
| 1 to 10 | < 1 | 150 to 600 | – | – | CCNC(=O)C(=O)CC[C@H](NC(=O)c1oc2ccccc2c1CC)C(=O)Nc1cccn(CC(=O)NC23CC(C2)C3)c1=O [Compound I-101, (S)-N1-(1-(2-(bicyclo[1.1.1]pentan-1-ylamino)-2-oxoethyl)-2-oxo-1,2-dihydropyridin-3-yl)-N6-ethyl-2-(3-ethylbenzofuran-2-carboxamido)-5-oxohexanediamide] |
| < 1 | < 1 | 600 to 3500 | – | – | CCNC(=O)C(=O)CC[C@H](NC(=O)c1nn[nH]n1)C(=O)Nc1cccn(CC(=O)NC2C3CC4CC(C3)CC2C4)c1=O (stereo partly drawn) [Compound I-57, (S)-N1-ethyl-N6-(1-(2-(2-adamantylamino)-2-oxoethyl)-2-oxo-1,2-dihydropyridin-3-yl)-2-oxo-5-(2H-tetrazole-5-carboxamido)hexanediamide] |
| 1 to 10 | 3 to 5 | 150 to 600 | – | – | CCNC(=O)C(=O)CC[C@H](NC(=O)c1coc2ccccc12)C(=O)Nc1cccn(CC(=O)N[C@H]2C[C@H]3C[C@@H]([C@@H]2C)C3(C)C)c1=O [Compound I-77, (S)-2-(benzofuran-3-carboxamido)-N6-ethyl-5-oxo-N1-(2-oxo-1-(2-oxo-2-((1S,2S,3S,5R)-2,6,6-trimethylbicyclo[3.1.1]heptan-3-ylamino)ethyl)-1,2-dihydropyridin-3-yl)hexanediamide] |
| 1 to 10 | 3 to 5 | < 150 | – | – | CCNC(=O)C(=O)CC[C@H](NC(=O)c1oc2ccccc2c1C)C(=O)Nc1cccn(CC(=O)NC2C3CC4CC(C3)CC2C4)c1=O (stereo partly drawn) [Compound I-31, (S)-N1-ethyl-N6-(1-(2-(2-adamantylamino)-2-oxoethyl)-2-oxo-1,2-dihydropyridin-3-yl)-5-(3-methylbenzofuran-2-carboxamido)-2-oxohexanediamide] |
| < 1 | 3 to 5 | 600 to 3500 | – | – | CCNC(=O)C(=O)CC[C@H](NC(=O)c1cn(CC(C)C)cn1)C(=O)Nc1cccn(CC(=O)NC23CC4CC(CC(CC)(C4)C2)C3)c1=O [Compound I-18, (S)-N1-ethyl-5-(1-isobutyl-1H-imidazole-4-carboxamido)-N6-(1-(2-(3-ethyladamantane-1-amino)-2-oxoethyl)-2-oxo-1,2-dihydropyridin-3-yl)-2-oxohexanediamide] |
| 1 to 10 | 1 to 3 | < 150 | – | – | CCNC(=O)C(=O)CC[C@H](NC(=O)c1sc(C(F)(F)F)nc1Br)C(=O)Nc1cccn(CC(=O)NC2C3CC4CC(C3)CC2C4)c1=O (stereo partly drawn) [Compound I-41, (S)-2-(4-bromo-2-(trifluoromethyl)thiazole-5-carboxamido)-N6-ethyl-N1-(1-(2-(2-adamantylamino)-2-oxoethyl)-2-oxo-1,2-dihydropyridin-3-yl)-5-oxohexanediamide] |
| < 1 | 1 to 3 | 150 to 600 | – | – | CCNC(=O)C(=O)CC[C@H](NC(=O)[C@H]1COCCN1)C(=O)Nc1cccn(CC(=O)NC2C3CC4CC2CC(C)(C4)C3)c1=O (stereo partly drawn) [Compound I-62, (S)-N1-ethyl-N6-(1-(2-(5-methyladamantane-2-amino)-2-oxoethyl)-2-oxo-1,2-dihydropyridin-3-yl)-5-((R)-morpholine-3-carboxamido)-2-oxohexanediamide] |
| < 1 | 3 to 5 | 600 to 3500 | – | – | CCNC(=O)C(=O)CC[C@H](NC(=O)c1c(C)nc2sccn12)C(=O)Nc1cccn(CC(=O)N(C)C2C3CC4CC(C3)CC2C4)c1=O (stereo partly drawn) [Compound I-67, (S)-N1-ethyl-N6-(1-(2-(2-adamantyl(methyl)amino)-2-oxoethyl)-2-oxo-1,2-dihydropyridin-3-yl)-5-(6-methylimidazo[2,1-b]thiazole-5-carboxamido)-2-oxohexanediamide] |
| < 1 | 1 to 3 | 150 to 600 | – | – | CCNC(=O)C(=O)CC[C@H](NC(=O)[C@@H]1CCCCN1)C(=O)Nc1cccn(CC(=O)NC2C3CC4CC2CC(Cl)(C4)C3)c1=O (stereo partly drawn) [Compound I-60, (S)-N1-ethyl-N6-(1-(2-(5-chloroadamantane-2-amino)-2-oxoethyl)-2-oxo-1,2-dihydropyridin-3-yl)-2-oxo-5-((S)-piperidine-2-carboxamido)hexanediamide] |
